Test [1] has as its system C57/Bl6 mice subjected to chronic restraint stress (working memory deficit). The test is described as follows: Y-maze alternation task after chronic restraint stress (CRS). It counts as in vivo. To be noted: 10 mg/kg i.p., acute, 30 min before testing, vs CRS vehicle. The procedure: Young Animals and chronic stress procedure: C57/Bl6 mice, males and females at 8 weeks old and are kept in normal housing conditions (12 h light ON cycle starting at 7 am/water and food ad libitum) for one week. During this week, animals are single housed and handled to reduce the anxiety-like response toward the experimenter. To induce a working memory deficit, mice are subjected to a chronic restraint stress protocol (CRS). They are placed in a 50 mL Falcon® tube, twice a day, for 1 hour during their diurnal cycle. The time of occurrence of the stress is randomized every day to avoid predictability. CRS is not applied on testing days. Y-maze test occurs 15 hours minimum after the last stressor.
Protocol: Mice are first habituated to the Y-maze apparatus and distal cues during 2 consecutive days over a 10 min free exploration session (one session per day). The next day, animals perform a training session consisting in seven successive trials separated by a 30 s inter-trial interval (ITI); during this training session, mice are familiarized with the experimental procedure (opening and closing of the doors and confinement into the goal arms). For each trial, mice remain in the start-box for a 30 s ITI. Then, the door is opened and the mouse is allowed to enter freely one of the two goal arms; the chosen arm is closed and the choice is recorded. After a 30 s confinement period into the chosen arm, the mouse is removed and brought back to the start-box for a second trial identical to the first one and this procedure is repeated over the series of trials.
The same general procedure used in the training session is implemented 24 h later, except that the ITI was lengthened to 90 s. For this experiment, animals are acutely injected i.p. with vehicle or drug, 30 minutes before the beginning of the test. To dissociate memory deficits from an eventual progressive loss of motivation to alternate over the series, an 8th trial is added to the series which is separated from the 7th trial by a shorter ITI (5 s). All animals failing to alternate at the 8th trial are excluded. The mean alternation rate is calculated and is expressed in percentage (number of alternation done by the animal/total number of alternation possible×100)±SEM. The percentage of alternation during the entire task is considered as an index of working memory performance (50% of being a random alternation rate). Factorial ANOVA is applied to the data to reveal differences between groups. If the ANOVA is significant for group effect (p<0.05), Scheffe post-hoc analysis are conducted to identify which groups are different from each other.
Drug preparation and administration: All drugs are diluted in a vehicle solution containing 85% H2O, 14% propylene glycol (Sigma Aldrich) and 1% Tween 80 (Sigma Aldrich). Working solutions are prepared at a concentration of 10 mg/mL and administered i.p. adjusted to the body weight of each animal. Doses used are either 1, 5, 10 or 20 mg/kg. For all Y maze experiments, animals are acutely injected i.p. with vehicle or drug, 30 minutes before the beginning of the test.

For test [2], the target named is T1, α1β3γ2 GABAA receptor (Homo sapiens, UniProt P14867+P18507).
T1 construct: Full-length cDNAs for GABAA receptor subtypes are transfected into the human embryonic kidney cell line HEK-293T; expressed in transfected cells; host or cells: human mammalian cells (HEK-293T per Procedure B)
Nature of the test: Electrophysiology in transfected cells (IonWorks Barracuda), PAM effect on current induced by 5 μM GABA. Format: cell-based. The procedure: (§1) Procedure B: Full-length cDNAs for GABAA receptor subtypes are transfected into the human embryonic kidney cell line HEK-293T. All subtypes are rat clones except for α2, which is a human clone. Cells are patch-clamped at −50 mV in the whole-cell recording configuration. GABA is diluted into the bath and compounds are dissolved in DMSO and diluted into bath solution. Solutions containing GABA or GABA+ compounds are applied to cells for 5 s. Currents are recorded with an Axon 200B patch clamp amplifier. Data is normalized data current expressed as a percentage of the response to GABA alone for each cell.
(§2) Electrophysiological Characterization of GL-III-68 by Procedure B: Human mammalian cells are transfected with human […] GABAA receptors. Cells are incubated with GL-III-68 at a range of concentrations from 0.03 μM to 100 μM. Currents are induced by stimulation with 5 μM GABA and recorded using the IonWorks Barracuda® test platform. Current is normalized to the current induced by 5 μM of GABA in the absence of any allosteric modulator. PAM effect of at different subtypes of GABA^A receptor. % of current was calculated relatively to current produced by 5 μM GABA alone (set to 100%) (FIG. 21). EC50 results are shown below.
Background: The patch-clamp technique gives a direct electrical read-out from membranes.

Test [3] addresses T2, α2β3γ2 GABAA receptor (Homo sapiens, UniProt P18507+P47869).
T2 construct: Full-length cDNAs for GABAA receptor subtypes are transfected into the human embryonic kidney cell line HEK-293T; expressed in transfected cells; host or cells: human mammalian cells (HEK-293T per Procedure B)
The description is as above. Format: cell-based. The protocol:
as §1, §2

Test [4] addresses T3, α3β3γ2 GABAA receptor (Homo sapiens, UniProt P18507+P34903).
T3 construct: Full-length cDNAs for GABAA receptor subtypes are transfected into the human embryonic kidney cell line HEK-293T; expressed in transfected cells; host or cells: human mammalian cells (HEK-293T per Procedure B)
The description is as above. It counts as cell-based. The protocol:
as §1, §2

For test [5], the target named is T4, α5β3γ2 GABAA receptor (Homo sapiens, UniProt P18507+P31644).
T4 construct: Full-length cDNAs for GABAA receptor subtypes are transfected into the human embryonic kidney cell line HEK-293T; expressed in transfected cells; host or cells: human mammalian cells (HEK-293T per Procedure B)
The description is as above. Format: cell-based. The procedure: as §1, §2

For orientation: EC50 means the concentration giving half of the maximal effect. A high value points to a less potent agent. Usually Emax stands for the greatest response seen or fitted, relative to the assay's reference.

T2 sequence (P47869 29-451): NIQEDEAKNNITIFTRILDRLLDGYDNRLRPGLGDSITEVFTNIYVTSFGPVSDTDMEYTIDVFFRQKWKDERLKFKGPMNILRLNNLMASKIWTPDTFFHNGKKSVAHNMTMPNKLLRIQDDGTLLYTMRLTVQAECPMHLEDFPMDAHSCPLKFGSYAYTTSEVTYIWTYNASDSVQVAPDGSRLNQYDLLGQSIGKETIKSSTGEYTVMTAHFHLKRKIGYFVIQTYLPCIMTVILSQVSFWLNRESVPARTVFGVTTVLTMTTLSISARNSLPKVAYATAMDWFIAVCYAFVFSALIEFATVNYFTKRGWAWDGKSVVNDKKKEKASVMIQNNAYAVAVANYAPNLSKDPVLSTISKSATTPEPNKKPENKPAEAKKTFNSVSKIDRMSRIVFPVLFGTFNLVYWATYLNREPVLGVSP
T2 sequence (P28472 26-473 partner): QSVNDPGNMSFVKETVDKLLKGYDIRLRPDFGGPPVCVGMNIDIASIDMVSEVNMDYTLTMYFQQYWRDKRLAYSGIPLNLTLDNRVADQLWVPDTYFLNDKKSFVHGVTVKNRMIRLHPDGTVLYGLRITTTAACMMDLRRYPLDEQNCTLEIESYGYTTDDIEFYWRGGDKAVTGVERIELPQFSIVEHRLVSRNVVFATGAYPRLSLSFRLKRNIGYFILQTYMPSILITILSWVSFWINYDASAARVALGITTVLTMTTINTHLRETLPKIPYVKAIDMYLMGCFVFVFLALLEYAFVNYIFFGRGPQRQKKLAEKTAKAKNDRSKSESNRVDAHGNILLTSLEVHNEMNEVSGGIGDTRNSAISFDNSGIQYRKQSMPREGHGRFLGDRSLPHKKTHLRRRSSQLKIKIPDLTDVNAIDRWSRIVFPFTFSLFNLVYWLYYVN
T2 sequence (P18507 40-475): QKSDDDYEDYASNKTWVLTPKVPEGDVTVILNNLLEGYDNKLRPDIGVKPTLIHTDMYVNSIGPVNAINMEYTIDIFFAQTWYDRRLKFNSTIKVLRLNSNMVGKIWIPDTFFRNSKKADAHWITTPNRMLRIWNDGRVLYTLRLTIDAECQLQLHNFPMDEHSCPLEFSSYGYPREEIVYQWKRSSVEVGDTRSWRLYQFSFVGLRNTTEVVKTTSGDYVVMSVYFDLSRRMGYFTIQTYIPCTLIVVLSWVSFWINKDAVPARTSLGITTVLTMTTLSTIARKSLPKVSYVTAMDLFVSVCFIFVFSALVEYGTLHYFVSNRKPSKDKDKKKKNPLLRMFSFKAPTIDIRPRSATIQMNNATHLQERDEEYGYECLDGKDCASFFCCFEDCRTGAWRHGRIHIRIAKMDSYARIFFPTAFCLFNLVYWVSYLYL
T4 sequence (P31644 32-462): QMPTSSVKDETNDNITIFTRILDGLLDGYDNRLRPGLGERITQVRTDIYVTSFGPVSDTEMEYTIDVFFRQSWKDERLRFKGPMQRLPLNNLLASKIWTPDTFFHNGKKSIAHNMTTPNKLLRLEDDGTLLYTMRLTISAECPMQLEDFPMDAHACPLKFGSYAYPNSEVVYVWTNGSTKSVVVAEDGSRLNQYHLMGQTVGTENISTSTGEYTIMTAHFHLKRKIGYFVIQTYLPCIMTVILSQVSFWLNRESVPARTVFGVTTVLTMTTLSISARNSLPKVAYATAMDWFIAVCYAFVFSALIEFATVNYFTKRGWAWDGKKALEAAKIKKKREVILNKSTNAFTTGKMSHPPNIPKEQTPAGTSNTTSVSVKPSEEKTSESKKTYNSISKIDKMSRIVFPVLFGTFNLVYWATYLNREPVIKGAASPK
T4 sequence (P28472 26-473 partner): as the sequence (P28472 26-473 partner) above
T4 sequence (P18507 40-475): as the sequence (P18507 40-475) above
T1 sequence (P14867 28-456): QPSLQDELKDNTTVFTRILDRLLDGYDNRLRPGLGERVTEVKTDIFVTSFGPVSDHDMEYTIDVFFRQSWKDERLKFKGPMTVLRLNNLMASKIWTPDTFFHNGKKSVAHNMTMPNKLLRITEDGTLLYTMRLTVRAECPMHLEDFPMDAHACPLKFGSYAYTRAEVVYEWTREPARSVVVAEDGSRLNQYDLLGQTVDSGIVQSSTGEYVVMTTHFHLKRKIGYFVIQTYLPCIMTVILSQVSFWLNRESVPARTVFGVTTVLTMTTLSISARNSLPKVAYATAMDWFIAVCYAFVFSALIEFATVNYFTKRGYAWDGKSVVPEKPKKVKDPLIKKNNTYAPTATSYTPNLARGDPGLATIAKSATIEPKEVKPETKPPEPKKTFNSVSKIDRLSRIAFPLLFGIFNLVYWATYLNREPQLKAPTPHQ
T1 sequence (P28472 26-473 partner): as the sequence (P28472 26-473 partner) above
T1 sequence (P18507 40-475): as the sequence (P18507 40-475) above
T3 sequence (P34903 29-492): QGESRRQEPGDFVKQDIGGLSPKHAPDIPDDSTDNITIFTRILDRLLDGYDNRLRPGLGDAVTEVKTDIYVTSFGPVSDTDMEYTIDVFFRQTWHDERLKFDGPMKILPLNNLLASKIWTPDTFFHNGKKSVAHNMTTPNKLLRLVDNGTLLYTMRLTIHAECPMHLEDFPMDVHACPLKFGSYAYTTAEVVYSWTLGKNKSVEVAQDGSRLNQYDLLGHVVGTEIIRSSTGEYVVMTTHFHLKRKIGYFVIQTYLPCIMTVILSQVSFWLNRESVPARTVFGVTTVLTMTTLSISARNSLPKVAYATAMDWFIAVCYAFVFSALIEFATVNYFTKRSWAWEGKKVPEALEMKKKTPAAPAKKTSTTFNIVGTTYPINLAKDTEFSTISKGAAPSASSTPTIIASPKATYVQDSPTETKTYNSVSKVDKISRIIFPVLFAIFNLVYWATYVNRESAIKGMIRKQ
T3 sequence (P28472 26-473 partner): as the sequence (P28472 26-473 partner) above
T3 sequence (P18507 40-475): as the sequence (P18507 40-475) above

Consider `CCNC(=O)c1ncn2c1[C@@H](C)N=C(c1ccccc1F)c1cc(C3CC3)ccc1-2` [GL-III-68, (R)-8-Cyclopropyl-N-ethyl-6-(2-fluorophenyl)-4-methyl-4H-benzo[f]imidazo[1,5-a][1,4]diazepine-3-carboxamide], for which the “reversal of CRS-induced reduction of alternation rate (Y-maze)” value in test [1] is “reversed”. For the same compound, the EC50 in test [2] is 10.7 µM; in test [3], 1910 nM; in test [4], 3.52 µM; in test [5] it was less than 30 nM. Besides, the Emax is 188% in test [2] (α1β3γ2, % of current produced by 5 μM GABA alone (set to 100%)); 224% in test [3] (α2β3γ2, % of current produced by 5 μM GABA alone (set to 100%)); 209% in test [4] (α3β3γ2, % of current produced by 5 μM GABA alone (set to 100%)); 188% in test [5] (α5β3γ2, % of current produced by 5 μM GABA alone (set to 100%)).
